Broadly, the pIC50 is the negative decadic logarithm of the IC50, by convention in mol/L. Low readings indicate a high IC50, high ones a low IC50.

For 11 compounds, IC50 results are on record in patent publication US20030186978A1, “Novel telomerase inhibitors” (priority 2000, published 2003).

pIC50: −log10 of the molar value.

telomerase enzyme, sequence (O14746 whole entry): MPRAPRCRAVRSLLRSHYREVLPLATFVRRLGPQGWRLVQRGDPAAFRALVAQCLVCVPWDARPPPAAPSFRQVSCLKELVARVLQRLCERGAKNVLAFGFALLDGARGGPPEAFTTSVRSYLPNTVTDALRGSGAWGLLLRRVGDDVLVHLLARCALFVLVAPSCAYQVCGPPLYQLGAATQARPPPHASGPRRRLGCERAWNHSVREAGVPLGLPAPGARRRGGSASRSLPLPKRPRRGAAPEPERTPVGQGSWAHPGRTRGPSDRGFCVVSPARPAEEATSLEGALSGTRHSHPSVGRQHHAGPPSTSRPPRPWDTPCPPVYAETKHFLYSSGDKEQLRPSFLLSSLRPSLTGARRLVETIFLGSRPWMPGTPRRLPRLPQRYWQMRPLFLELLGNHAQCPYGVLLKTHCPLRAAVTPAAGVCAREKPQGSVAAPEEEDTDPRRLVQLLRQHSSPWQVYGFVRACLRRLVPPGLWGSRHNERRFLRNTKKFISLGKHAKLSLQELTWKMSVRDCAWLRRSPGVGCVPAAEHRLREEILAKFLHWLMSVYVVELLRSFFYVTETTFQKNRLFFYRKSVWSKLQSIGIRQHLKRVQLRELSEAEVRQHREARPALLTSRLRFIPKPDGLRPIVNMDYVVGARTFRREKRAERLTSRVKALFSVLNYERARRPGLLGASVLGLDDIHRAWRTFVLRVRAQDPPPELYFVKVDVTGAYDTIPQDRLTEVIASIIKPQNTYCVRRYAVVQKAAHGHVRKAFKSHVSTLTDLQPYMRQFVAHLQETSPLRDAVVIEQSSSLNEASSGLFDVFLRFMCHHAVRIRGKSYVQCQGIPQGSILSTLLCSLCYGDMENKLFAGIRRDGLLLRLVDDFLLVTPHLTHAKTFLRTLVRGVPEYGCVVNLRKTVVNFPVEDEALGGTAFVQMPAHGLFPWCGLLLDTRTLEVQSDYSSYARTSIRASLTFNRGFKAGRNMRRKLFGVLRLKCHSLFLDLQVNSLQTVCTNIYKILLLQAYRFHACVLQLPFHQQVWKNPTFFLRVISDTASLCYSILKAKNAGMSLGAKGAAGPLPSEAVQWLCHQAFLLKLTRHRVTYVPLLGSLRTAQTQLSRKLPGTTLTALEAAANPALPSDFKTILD

The target in this test is telomerase enzyme (Homo sapiens, UniProt O14746). Kind of test: Flash Plate-based telomerase assay. The test is classed as biochemical. The conditions noted are these: two hours of incubation at 37°; only indicative, obtained during screening by fitting a limited number of experimental points. The text has this:
The telomerase activity of the compounds of the invention has been evaluated using a Flash Plate-based assay. […] Other methods for determining the inhibitory concentration of a compound of the invention against telomerase can be employed as will be apparent to a person skilled in the art based on the disclosure herein.
Briefly, the assay mixture is costituted by:
telomerase enzyme diluted in a buffer, the composition of which has been selected to maintain the enzyme activity stable along the duration of the assay.
dNTPs, deoxynucleotides 5′-triphosphate.
biotynilated oligo as primer.
increasing concentrations of test compounds/positive control.
After two hours of incubation at 37° degrees the telomeric repeats added are evaluated by hybridization in solution with a 3′-labeled short oligonucleotide probe. The extent of hybridization is then quantitated by transferring the reaction mixture in a streptavidin-coated flash plate, where the binding between biotin and streptavidin occurs. The telomerase activity is proportional to the radioactivity measured and the inhibitory activity of the compounds is evaluated as IC50 using the Sigma Plot fit program. With the above-described method, IC50 values of the compounds of the present invention were determined. The data reported in Table 1 are only indicative since obtained during the screening by fitting a limited number of experimental points.
Turning to `Nc1nc(=O)c2c(ncn2Cc2ccc3ccccc3c2)n1Cc1ccc2ccccc2c1` [Compound 1, 2-amino-3,7-bis(2-naphthylmethyl)-3,7-dihydro-6H-purin-6-one], the pIC50 was 5.40.
The value for `Nc1nc(=O)c2c(ncn2Cc2ccc(-c3ccccc3)cc2)n1Cc1ccc(-c2ccccc2)cc1` [Compound 2, 2-amino-3,7-bis-[(1,1′-biphenyl)-4-ylmethyl]-3,7-dihydro-6H-purin-6-one] was 5.52; that for `Nc1nc(=O)c2c(ncn2Cc2ccc(-c3ccc(CCl)cc3)cc2)n1Cc1ccc(-c2ccc(CCl)cc2)cc1` [Compound 3, 2-amino-3,7-bis{[4′-(chloromethyl)[1,1′-biphenyl]-4-yl]methyl}-3,7-dihydro-6H-purin-6-one] was 5.30; that for `Nc1nc(=O)c2c(ncn2Cc2ccc(Cl)c(Cl)c2)n1Cc1ccc(Cl)c(Cl)c1` [Compound 4, 2-amino-3,7-bis(3,4-dichlorobenzyl)-3,7-dihydro-6H-purin-6-one] was 5.40.
The value for `Nc1nc(=O)c2c(ncn2Cc2ccc3ccccc3c2)n1Cc1ccc(-c2ccccc2)cc1` [Compound 5, 2-amino-3-([1,1-biphenyl]-4-ylmethyl)-7-(2-naphthylmethyl)-3,7-dihydro-6H-purin-6-one] was 5.70; that for `Nc1nc(=O)c2c(ncn2Cc2ccc(-c3ccccc3)cc2)n1Cc1ccc2ccccc2c1` [Compound 6, 2-amino-3-(2-naphthylmethyl)-7-([1,1′-biphenyl]-4-ylmethyl)-3,7-dihydro-6H-purin-6-one] was 5.70; that for `Nc1nc(=O)c2c(ncn2Cc2ccc3ccccc3c2)n1Cc1ccc(Cl)c(Cl)c1` [Compound 7, 2-amino-3 (3,4-dichlorobenzyl)-7-(2-naphthylmethyl)-3,7-dihydro-6H-purin-6-one] was 5.52.
The value for `Nc1nc(=O)c2c(ncn2Cc2ccc3ccccc3c2)n1Cc1cccc(Oc2ccccc2)c1` [Compound 8, 2-amino-3-(3-phenoxybenzyl)-7-(2-naphthylmethyl)-3,7-dihydro-6H-purin-6-one] was 5.52; that for `Nc1nc(=O)c2c(ncn2Cc2ccc3ccccc3c2)n1Cc1ccc2c(c1)C(=O)c1ccccc1C2=O` [Compound 19, 2-{[2-amino-7-(2-naphthylmethyl)-6-oxo-6,7-dihydro-3H-purin-3-yl]methyl}anthra-9,10-quinone] was 5.40.
`Nc1nc(=O)c2c(ncn2Cc2ccc3ccccc3c2)n1Cc1ccc(-c2nnn[nH]2)cc1` [Compound 27, 2-amino-7-(2-naphthylmethyl)-3-[4-(1H-tetraazol-5-yl)benzyl]-3,7-dihydro-6H-purin-6-one] showed a pIC50 of 4.72. Compared with the last compound, the pIC50 is 0.68 log units lower.
To `COC(=O)c1cccc(Cn2c(N)nc(=O)c3c2ncn3Cc2ccc3ccccc3c2)c1` [Compound 29, Methyl 3-{[2-amino-7-(2-naphthylmethyl)-6-oxo-6,7-dihydro-3H-purin-3-yl]methyl}benzoate] belongs 4.68.
